Data reported in US8999982B2, “Pharmaceutically active compounds as Axl inhibitors” (Lead Discovery Center GmbH, priority 2010, dated 2015).

Biological target: Axl (Homo sapiens (Human), UniProt P30530)
Assay: Axl binding assay
Conditions: not given
Experimental: Binding of the tracer to the kinase is detected using an EU-labeled anti-tag antibody. […] Binding of an inhibitor to the kinase competes for binding with the tracer, resulting in a loss of FRET-signal. At first a compound according to formula (I) was diluted in 20 mM Hepes pH 8.0, 1 mM DTT, 10 mM MgCl2 and 0.01% Brij35.

Chain of Axl (P30530 26-894): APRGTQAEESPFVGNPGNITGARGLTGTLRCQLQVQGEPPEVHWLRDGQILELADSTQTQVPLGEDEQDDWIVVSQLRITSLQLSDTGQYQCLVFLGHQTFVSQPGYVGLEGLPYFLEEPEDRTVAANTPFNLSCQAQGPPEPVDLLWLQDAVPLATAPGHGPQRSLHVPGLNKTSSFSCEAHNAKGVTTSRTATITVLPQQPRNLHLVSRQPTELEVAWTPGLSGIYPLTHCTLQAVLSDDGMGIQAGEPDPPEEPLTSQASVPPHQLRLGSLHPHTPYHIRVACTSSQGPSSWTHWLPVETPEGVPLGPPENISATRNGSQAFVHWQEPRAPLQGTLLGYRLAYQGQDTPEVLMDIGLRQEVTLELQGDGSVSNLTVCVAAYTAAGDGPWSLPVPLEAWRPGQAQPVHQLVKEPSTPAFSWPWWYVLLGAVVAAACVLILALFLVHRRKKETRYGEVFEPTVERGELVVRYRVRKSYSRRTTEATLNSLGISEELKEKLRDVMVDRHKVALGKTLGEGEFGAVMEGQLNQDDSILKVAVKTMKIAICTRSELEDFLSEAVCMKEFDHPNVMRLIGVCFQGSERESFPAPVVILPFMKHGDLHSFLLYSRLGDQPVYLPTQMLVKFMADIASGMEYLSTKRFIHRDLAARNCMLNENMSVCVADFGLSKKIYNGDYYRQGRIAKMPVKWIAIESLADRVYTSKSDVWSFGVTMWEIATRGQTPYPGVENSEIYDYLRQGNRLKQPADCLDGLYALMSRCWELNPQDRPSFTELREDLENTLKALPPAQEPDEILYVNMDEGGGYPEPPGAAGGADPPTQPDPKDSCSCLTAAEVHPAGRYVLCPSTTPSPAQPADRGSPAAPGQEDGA

IC50 | Compound
> 10 µM | COc1cc2nccc(Oc3ccc(NC(=O)c4cc(-c5ccccc5)on4)cc3F)c2cc1OC [Ref2, N-(4-((6,7-dimethoxyquinolin-4-yl)oxy)-3-fluorophenyl)-5-phenylisoxazole-3-carboxamide, reference compound]
0.5 to 5 µM | COc1cc2c(Oc3ccc(NC(=O)c4nc(-c5ccccc5OC)cs4)nc3)ccnc2cc1OCC1CCNCC1 [Example 100, N-(5-((6-methoxy-7-(piperidin-4-ylmethoxy)quinolin-4-yl)oxy)pyridin-2-yl)-4-(2-methoxyphenyl)thiazole-2-carboxamide]
0.5 to 5 µM | COc1cc2nccc(Oc3ccc(NC(=O)c4nccs4)cc3F)c2cc1OC [Example 6, N-[4-[(6,7-dimethoxy-4-quinolyl)oxy]-3-fluoro-phenyl]thiazole-2-carboxamide]
0.5 to 5 µM | COc1cc2nccc(Oc3ccc(NC(=O)c4nn(C)c5ccccc45)cc3F)c2cc1OC [Example 8, N-[4-[(6,7-dimethoxy-4-quinolyl)oxy]-3-fluoro-phenyl]-1-methyl-indazole-3-carboxamide]
> 10 µM | COc1cc2nccc(Oc3ccc(NC(=O)c4cnn(-c5ccccc5)c4C(F)(F)F)cc3F)c2cc1OC [Ref1, N-(4-((6,7-dimethoxyquinolin-4-yl)oxy)-3-fluorophenyl)-1-phenyl-5-(trifluoromethyl)-1H-pyrazole-4-carboxamide, reference compound]
> 10 µM | COc1cc2nccc(Oc3ccc(NC(=O)c4ccncc4)cc3)c2cc1OC [Ref5, N-(4-((6,7-dimethoxyquinolin-4-yl)oxy)phenyl)isonicotinamide, reference compound]
> 10 µM | COc1cc2c(Oc3ccc(N)cc3F)ccnc2cc1OCC1CCN(C(=O)OC(C)(C)C)CC1 [tert-butyl 4-(((4-(4-amino-2-fluorophenoxy)-6-methoxyquinolin-7-yl)oxy)methyl)piperidine-1-carboxylate]
< 0.5 µM | CCOc1cn(-c2ccn(C)n2)nc1C(=O)Nc1ccc(Oc2ccnc3cc(OC)c(OC)cc23)c(F)c1 [Example 106, N-(4-((6,7-dimethoxyquinolin-4-yl)oxy)-3-fluorophenyl)-4-ethoxy-1′-methyl-1′H-[1,3′-bipyrazole]-3-carboxamide]
0.5 to 5 µM | COc1cc2nccc(Oc3ccc(NC(=O)c4cc(C)on4)cc3F)c2cc1OC [Example 9, N-[4-[(6,7-dimethoxy-4-quinolyl)oxy]-3-fluoro-phenyl]-5-methyl-isoxazole-3-carboxamide]

Continued, compound first:

Compound | IC50
COc1cc2nccc(Oc3ccc(N)c(C)c3)c2cc1OC [4-((6,7-dimethoxyquinolin-4-yl)oxy)-2-methylaniline] | > 10 µM
COc1cc2nccc(Oc3ccc(N)cc3)c2cc1OC [4-((6,7-dimethoxyquinolin-4-yl)oxy)aniline] | > 10 µM
COc1cc2nccc(Oc3ccc(N)nc3)c2cc1OC [5-((6,7-dimethoxyquinolin-4-yl)oxy)pyridin-2-amine] | > 10 µM
COc1cc2nccc(Oc3ccc(N)cc3C)c2cc1OC [4-((6,7-dimethoxyquinolin-4-yl)oxy)-3-methylaniline] | > 10 µM
COc1cc2nccc(Oc3ccc(N)cc3Cl)c2cc1OC [3-chloro-4-((6,7-dimethoxyquinolin-4-yl)oxy)aniline] | > 10 µM
COc1cc2nccc(Oc3ccc(N)cc3F)c2cc1OC [4-((6,7-dimethoxyquinolin-4-yl)oxy)-3-fluoroaniline] | > 10 µM
COc1cc(Oc2ccnc3cc(OC)c(OC)cc23)ccc1N [4-((6,7-dimethoxyquinolin-4-yl)oxy)-2-methoxyaniline] | > 10 µM
COc1cc2nccc(Oc3ccc(NC(=O)c4csc(-c5ccc(C(F)(F)F)cc5)n4)cc3F)c2cc1OC [Example 2, N-[4-[(6,7-dimethoxy-4-quinolyl)oxy]-3-fluoro-phenyl]-2-[4-(trifluoromethyl)phenyl]thiazole-4-carboxamide] | 0.5 to 5 µM

Same assay, conditions: listed as compound 71

IC50 | Compound
≥ 10 µM | COc1cc2nccc(Oc3ccc(NC(=O)c4ccncc4)cc3)c2cc1OC [Ref5, N-(4-((6,7-dimethoxyquinolin-4-yl)oxy)phenyl)isonicotinamide, reference compound]
